One may read the IC50 as the concentration needed to halve the response being measured. Read a low IC50 as greater potency in that assay. For orientation: inhibition means the relative decrease from the control value, in per cent. Low readings indicate little suppression, high ones strong suppression.

For twelve compounds, IC50, Activity and inhibition results are on record in ChEMBL document CHEMBL1146091, “Benzoylphenylurea sulfur analogues with potent antitumor activity” (J Med Chem, 2006).

One test relates to PANC-1. As to the kind of experiment: Cytotoxicity against human Panc1 cell line by MTT assay. Format: functional, cell-based. On the technique in general: Tetrazolium assays rely on reduction of a dye to a coloured formazan, in cell work by metabolically active cells.
The next test has as its system Panc430. Kind of test: Cytotoxicity against human Panc430 cell line by MTT assay. Type of test: functional, cell-based.
In a further test the test system is Panc203. Kind of test: Cytotoxicity against human Panc203 cell line by MTT assay. Format: functional, cell-based.
In another test the test system is Panc1005. As to the kind of experiment: Cytotoxicity against human Panc1005 cell line by MTT assay. Type of test: functional, cell-based.
Another test has as its system MIA PaCa-2. As to the kind of experiment: Cytotoxicity against human Miapaca2 cell line by MTT assay. Format: functional, cell-based.
Another test deals with Hs 766. Kind of test: Cytotoxicity against human HS766 cell line by MTT assay. Type of test: functional, cell-based.
For a further test, the system named is CWR22R. As to the kind of experiment: Cytotoxicity against human CWR22R cell line by MTT assay. Format: functional, cell-based. Particulars: 22Rv1.
For the next test, the system named is LAPC4. As to the kind of experiment: Cytotoxicity against human LAPC4 cell line by MTT assay. Format: functional, cell-based.
For a further test, the target named is Tubulin. Kind of test: Inhibition of tubulin polymerization. Format: protein-complex assay, Homo sapiens.
The test system of the next test is LNCaP. Kind of test: Cytotoxicity against human LnCaP cell line by MTT assay. Type of test: functional, cell-based.
Another test deals with ASPC1. Kind of test: Cytotoxicity against human ASPC1 cell line by MTT assay. Format: functional, cell-based.
In test [1] the test system is MCF7. As to the kind of experiment: Induction of apoptosis in human MCF7 cell line at 10 nM after 48 hrs. Type of test: functional.
For test [2], the system named is MCF7. As to the kind of experiment: Induction of apoptosis in human MCF7 cell line at 30 nM after 48 hrs. Format: functional.
Test [3] deals with MCF7. As to the kind of experiment: Induction of apoptosis in human MCF7 cell line at 100 nM after 48 hrs. Type of test: functional.
In another test the target is Tubulin (Homo sapiens) (UniProt P68371+Q9H4B7+P0DPH7+P68366+Q13509+Q71U36+P04350+Q3ZCM7+P07437+P68363+Q9BQE3+Q6PEY2+Q13885+Q9BVA1+Q9BUF5). As to the kind of experiment: Inhibition of [3H]colchicine binding to tubulin at 5 uM. Type of test: protein-complex assay.

A value given as a limit tells only on which side of the number the result lay.

For the compound `Nc1ccccc1C(=O)NC(=O)Nc1ccc(Sc2ncc(Br)cn2)cc1`, the IC50 was determined as 0.09 µM in the test on PANC-1; 0.2 µM with Panc430; 0.085 µM with Panc203; 10 µM in the test on Panc1005; 95 nM with MIA PaCa-2; 700 nM in the test on Hs 766. Also, the IC50 was 500 nM in the test with CWR22R; 100 nM with LAPC4; > 40 µM against Tubulin; 500 nM in the test on LNCaP; 450 nM in the test on ASPC1.
Take `O=C(NC(=O)c1ccccc1[N+](=O)[O-])Nc1ccc(Sc2ncccn2)cc1`: the IC50 stood at 5000 nM in the test with CWR22R, 600 nM in the test with LAPC4 and 500 nM with LNCaP.
In the case of `Cc1cc(NC(=O)NC(=O)c2ccccc2N(C)C)ccc1Oc1ncc(Br)cn1`, the IC50 in the test on PANC-1 turned out to be 0.7 µM; in the test on Panc430 it was 0.8 µM; in the test on Panc203 it was 0.95 µM; with Panc1005, 5 µM; in the test on MIA PaCa-2, 850 nM; in the test on Hs 766, 1000 nM. For the same compound, the IC50 was found to be 1000 nM in the test with CWR22R, 250 nM in the test with LAPC4, 500 nM with LNCaP and 850 nM with ASPC1. The Activity was determined as 16.1% in the test with MCF7 [1], 19.5% in the test with MCF7 [2] and 27.7% in the test with MCF7 [3].
For `O=C(NC(=O)c1ccccc1[N+](=O)[O-])Nc1ccc(Sc2ncc(Br)cn2)cc1`, the IC50 in the test with PANC-1 turned out to be 0.085 µM; with Panc430 it was 0.09 µM; in the test with Panc203, 0.7 µM; in the test on Panc1005 it was 10 µM; in the test on MIA PaCa-2 it was 86 nM; in the test with Hs 766, 88 nM. The IC50 came to 50 nM in the test on CWR22R; 50 nM with LAPC4; 2.1 µM against Tubulin; 50 nM with LNCaP; 1000 nM with ASPC1. For the same compound, the Activity in the test on MCF7 [1] is given as 29.7%; in the test on MCF7 [2], 51.2%; in the test on MCF7 [3], 53.6%. Further, the inhibition at Tubulin (Homo sapiens) was found to be 17%.
Consider `Nc1ccccc1C(=O)NC(=O)Nc1ccc(Sc2ncccn2)cc1`, for which the IC50 is 7.5 µM with PANC-1; 6.5 µM with Panc430; 5.5 µM with Panc203; > 10 µM in the test on Panc1005; 7000 nM in the test with MIA PaCa-2; 8000 nM with Hs 766. In the test on ASPC1, this compound showed an IC50 of 6000 nM.
With `O=C(NC(=O)c1ccccc1[N+](=O)[O-])Nc1ccc([S+]([O-])c2ncc(Br)cn2)cc1` (configuration not stated), the concentration for half-maximal inhibition (IC50) with PANC-1 is 6.5 µM; with Panc430, 5.5 µM; in the test with Panc203 it was 5.5 µM; with Panc1005, 5.5 µM; in the test on MIA PaCa-2, 8000 nM; in the test with Hs 766, 6500 nM. In addition, in the test on ASPC1, the IC50 is 2500 nM.
As for `Nc1ccccc1C(=O)NC(=O)Nc1ccc(Oc2ncc(Br)cn2)cc1`, the IC50 with PANC-1 is 3.5 µM; in the test on Panc430, > 10 µM; in the test on Panc203, > 10 µM; in the test with Panc1005 it was > 10 µM; with MIA PaCa-2 it was 920 nM; in the test with Hs 766 it was 270 nM. In addition, the IC50 in the test with CWR22R worked out at 2000 nM; in the test with LAPC4 it was 750 nM; against Tubulin, 36 µM; in the test with LNCaP it was 750 nM; with ASPC1 it was 5200 nM.
For the compound `O=C(NC(=O)c1ccccc1[N+](=O)[O-])Nc1ccc(Oc2ncc(Br)cn2)cc1`, the IC50 is 0.68 µM with PANC-1; 10 µM in the test on Panc430; > 10 µM in the test on Panc203; > 10 µM in the test with Panc1005; 740 nM in the test with MIA PaCa-2; 470 nM in the test on Hs 766. Moreover, the IC50 with CWR22R stood at 5000 nM; with LAPC4, 200 nM; against Tubulin it was 4.7 µM; in the test on LNCaP, 1000 nM; with ASPC1, 770 nM. This compound yielded an inhibition at Tubulin (Homo sapiens) of 21%.
Compound `COc1cc([C@@H]2c3cc4c(cc3[C@H](O)[C@H]3COC(=O)[C@H]23)OCO4)cc(OC)c1OC` came in with an inhibition at Tubulin (Homo sapiens) of 77%.
Turning to `O=C(NC(=S)Nc1ccc(Sc2ncc(Br)cn2)cc1)c1ccccc1`, the IC50 was 9.5 µM with PANC-1; 7.5 µM in the test with Panc430; > 10 µM in the test on Panc203; > 10 µM in the test on Panc1005; 10000 nM with MIA PaCa-2; 8500 nM in the test with Hs 766. For the same compound, the IC50 in the test on CWR22R was > 10000 nM; in the test on LAPC4 it was 6000 nM; in the test on LNCaP, > 10000 nM; in the test with ASPC1, 10000 nM.
`O=C(NC(=O)c1ccccc1[N+](=O)[O-])Nc1ccc(S(=O)(=O)c2ncc(Br)cn2)cc1`: the IC50 is > 10 µM in the test on PANC-1; > 10 µM with Panc430; > 10 µM in the test with Panc203; > 10 µM in the test on Panc1005; 6100 nM in the test on MIA PaCa-2; > 10000 nM in the test with Hs 766. The IC50 in the test with CWR22R is > 10000 nM; in the test with LAPC4 it was 4000 nM; with LNCaP, 500 nM; in the test on ASPC1, > 10000 nM.
Regarding `O=C(NC(=O)c1ccccc1)Nc1ccc(Sc2ncc(Br)cn2)cc1`, the IC50 with PANC-1 is > 10 µM; in the test on Panc430, 2 µM; with Panc203, 7.5 µM; in the test on Panc1005, > 10 µM; in the test on MIA PaCa-2, 5000 nM; in the test with Hs 766, 5500 nM. Further, the IC50 with ASPC1 is > 10000 nM.
